Results from patent US20040152903A1, “6-chloro-3-pyridylmethylpropylamine derivatives, preparation process thereof and bactericides” (priority 2004, published 2004).

Assays:
cucumber powdery mildew = assay: Test of control effect on cucumber powdery mildew; type: in vivo; settings: wettable powder 100 mg/l, 100 liters/10 a, cucumber (Sagamihanpakufushinari), examined 9th to 14th day after inoculation
Procedure: (Test of Control Effect on Cucumber Powdery Mildew) The wettable powders formulated by using each of the compounds I-1 to 27 according to the present invention and the comparative compounds (a) to (d), (m-1) and (m-3) were each diluted and suspended with water to a predetermined concentration (100 mg/l), the suspension was sprinkled over the first to the second leaf period cucumbers (variety: “[…]”) cultivated by using a square plastic pot (size: 6.4 cm×6.4 cm) in a rate of 100 liters/10 a (ares). After the sprinkled leaves were air-dried, the spores were inoculated over the leaves by sprinkling the same with a brush from an infected leaf, a disease was contracted in a glass house (temperature: 20 to 24° C., relative humidity: 20 to 70 RH). On the 9th to 14th day after the inoculation, the infection degree was examined according to the following scale and the control value of each compound was calculated by the following calculation equation 2: (Examination Scale) [table]

Botrytis cinerea = assay: Antifungal activity test (PDA plate, hypha extension inhibition); type: cell-based; settings: 1.6 ppm in PDA culture medium
Procedure: (§1) (Antifungal Activity Test against Various Pathogenic Fungi) For each of the compounds I-1 to 27 of the present invention and the comparative compounds (a) to (d), (m-1) and (m-3), 20 mg was weighed and dissolved in 2 ml of dimethylsulfoxide, and a double dilution row in 10 steps was prepared by further using dimethylsulfoxide. A 0.6 ml portion of these solutions was each added to 60 ml of a PDA culture medium (potato-dextrose-agar culture medium) at about 60° C., they were well mixed in a 100 ml Erlenmeyer flask, the solution was poured into a schale and was solidified, the plate culture media containing the compounds according to the present invention with final concentrations of 100, 50.0, 25.0, 12.5, 6.3, 3.2, 1.6, 0.8, 0.4 and 0.2 mg/l were prepared. On the other hand, the specimen bacteria cultured on the plate culture media beforehand was punched by a 4 mm diameter cork borer, and was inoculated on the plate culture media containing the aforementioned chemicals. After the inoculation, the bacteria were cultured at the optimum growth temperature of each bacterium for 1 to 7 days (for this optimum growth temperature, LIST OF CULTURES 1996 Microorganisms 10th edition published by Fermentation Research Institute (Foundation) can be referred to.), and the growth of the bacteria was measured by the diameter of a colony. […] R=100(dc−dt)/dc (Equation 3) [wherein each symbol is shown as follows: R=Hypha extension inhibition rate (%), dc=Diameter of colony on no-treated plate, dt=Diameter of colony on chemical-treated plate.] The results obtained above was evaluated in 5 steps in accordance with the following examination scale. <Growth Inhibition> 5: Hypha extension inhibition rate of 90% or more 4: Hypha extension inhibition rate of from 70% to less than 90% 3: […] 2: […] In addition, the abbreviations in Table 10 are as follows: B.c: Botrytis cinerea

wheat powdery mildew [1] = assay: Permeable mobility fungicidal effect test in leaf section of wheat powdery mildew; type: in vivo; settings: length of non-contracted area relative to compound (m-2); 200 mg/l, 0.5 μl applied to wheat leaf (Abukumawase)
Procedure: (Permeable Mobility Fungicidal Effect Test in Leaf Section of Wheat Powdery Mildew) In the test example 4, permeable mobility fungicidal effect test was performed on the leaf section of wheat powdery mildew with regard to the compounds I-1 to 27 according to the present invention and the comparative compounds (a) to (d), and (m-1) to (m-3) with the method described later. <Test Method> The compound in the form of a wettable powder obtained by Formulation 2 or the like was diluted and suspended with water to a predetermined concentration (200 mg/l), and 0.5 μl of the suspension was applied to a 2 to 3 cm leaf portion from the root of the three leaves of the 4th to 4.5th leaf period wheat (variety: Abukumawase) cultured by using a square plastic pot (size: 6.4 cm×6.4 cm). After these wheat leaves were subject to still standing in a glass house (temperature: 20 to 24° C., relative humidity: 20 to 70 RH) for one day, the spores of wheat powdery mildew were inoculated over the leaves by sprinkling the same with a brush from an infected leaf, a disease was contracted in the same glass house. The length of a non-contracted area generated from the applied portion to the direction of the leaf top was measured, and a relative mobility to the compound (m-2) was calculated with the following calculation […] by using the comparative compound (m-2) as a standard compound. Relative mobility=(Length of non-contracted area in each chemical section (cm)/Length of non-contracted area of compound (m-2) (cm)) (Equation 4)

wheat powdery mildew [2] = assay: Test of control effect on wheat powdery mildew; type: in vivo; set-up: Control Value: scale not given here; settings: wettable powder 125 mg/l, 100 liters/10 a, wheat seedlings (Nourin 64), examined 9th to 14th day after inoculation
Procedure: (Test of Control Effect on Wheat Powdery Mildew) Wettable powders were prepared from compounds of the present invention I-1 to I-27 and comparative compounds (a) to (d), (m-1) and (m-3). The obtained wettable powder was diluted and suspended with water to provide the predetermined concentration (125 mg/l), and was sprinkled onto seedlings of wheat (variety: “Nourin 64”) at the first to the second leaf period which were cultivated using square plastic pots (size: 6.4 cm×6.4 cm) in a rate of 100 liters/10 a (ares). After drying the sprinkled leaves with air, a suspension of wheat powdery mildew spores taken from infected leaves was inoculated by spraying onto the sprinkled leaves. They were supervised in a green house (temperature: 20 to 24° C., relative humidity: 20 to 70 RH). On the 9th to 14th day after the inoculation, the infection degree was examined according to the following scale and the control value of each compound was calculated by the following calculation equation 1. [table]

Septoria tritici = assay: Antifungal activity test (PDA plate, hypha extension inhibition); type: cell-based; settings: 100 ppm in PDA culture medium
Procedure: as §1, with “S.t: Septoria tritici” for “B.c: Botrytis cinerea”

Leptosphaeria nodorum = assay: as above; type: cell-based; settings: 0.8 ppm in PDA culture medium
Procedure: as §1, with “L.n: Leptosphaeria nodorum” for “B.c: Botrytis cinerea”

Row | SMILES | Control Value (cucumber powdery mildew) | Growth Inhibition B.c (1.6) (Botrytis cinerea) | Relative Mobility (wheat powdery mildew [1]) | Control Value (wheat powdery mildew [2]) | Growth Inhibition S.t (100) (Septoria tritici) | Growth Inhibition L.n (0.8) (Leptosphaeria nodorum)
1 | CC(Cc1ccc(C(F)(F)F)cc1F)CN(C)Cc1ccc(Cl)nc1 (stereo not shown) [Compound I-8] | 100 | 4 (Hypha extension inhibition rate of from 70% to less than 90%) | 5 | 100 | 4 (Hypha extension inhibition rate of from 70% to less than 90%) | 
2 | CC(Cc1ccc(F)c(OC(F)(F)F)c1)CN(C)Cc1ccc(Cl)nc1 (stereo not shown) [Compound I-16] | 100 | 4 (Hypha extension inhibition rate of from 70% to less than 90%) | 9 | 100 |  | 5 (Hypha extension inhibition rate of 90% or more)
